Earlier results on 1 compound are cited in patent publication US20130140210A1, “LOW-DOSED SOLID ORAL DOSAGE FORMS FOR HRT” (BAYER INTELLECTUAL PROPERTY GMBH, priority 2010, published 2013).

The data set concerns moderate or severe hot flushes in menopausal women. The following applies: 2 mg E2.

As for `C[C@]12CC[C@@H]3c4ccc(O)cc4CC[C@H]3[C@@H]1CC[C@@H]2O` [E2, estradiol], the estrogen-related adverse events entry is given as “increased estrogen-related adverse events”.
